# In ChEMBL document CHEMBL2396542, “Membrane anchoring γ-secretase modulators with terpene-derived moieties” (Bioorg Med Chem Lett, 2013):
# Experiments:
# Presenilin-1 [1] = biological target: T1, Presenilin-1 (Homo sapiens, UniProt P49768); assay: Modulation of human gamma-secretase presenilin-1 subunit expressed in CHO cells coexpressing human APP assessed as decrease in amyloid beta 40 generation after 24 hrs by ELISA; type: cell-based
# [2] = Micelle formation by compound at 5 to 100 uM by dynamic light scattering assay; type: physicochemical
# [3] = Micelle aggregation by compound at 5 to 100 uM by dynamic light scattering assay; type: physicochemical
# Presenilin-1 [4] = biological target: T1, Presenilin-1; assay: Modulation of human gamma-secretase presenilin-1 subunit expressed in CHO cells coexpressing human APP assessed as increase in amyloid beta 38 generation after 24 hrs by ELISA; type: cell-based
# Presenilin-1 [5] = biological target: T1, Presenilin-1; assay: Modulation of human gamma-secretase presenilin-1 subunit expressed in CHO cells coexpressing human APP assessed as decrease in amyloid beta 42 generation after 24 hrs by ELISA; type: cell-based
# Presenilin-1 [6] = biological target: T1, Presenilin-1; assay: Modulation of human gamma-secretase presenilin-1 subunit expressed in CHO cells coexpressing human APP assessed as increase in amyloid beta 38 generation at EC50 after 24 hrs by ELISA relative to control; type: cell-based
# [7] = Micelle formation by compound at 100 uM by dynamic light scattering assay; type: physicochemical
# [8] = Micelle aggregation by compound at 100 uM by dynamic light scattering assay; type: physicochemical
SMILES,IC50 (Presenilin-1 [1]),Activity [2],Activity [3],EC50 (Presenilin-1 [4]),IC50 (Presenilin-1 [5]; read-out: IC50),IC50 (Presenilin-1 [5]; read-out: pIC50 (converted)),Activity (Presenilin-1 [6]),Activity [7],Activity [8]
CCCCCCCCOc1c(C)c(C)c2c(c1C)CCC(C)(C(=O)O)O2 (stereo not drawn),> 50 µM,Not Active,Not Active,> 50 µM,57 µM,25.1 µM,–,–,–
CCCCCCCCCCCCCCOc1c(C)c(C)c2c(c1C)CCC(C)(C(=O)O)O2 (stereo not drawn),29 µM,Not Active,Not Active,9 µM,14 µM,31.6 µM,40%,–,–
Cc1c(C)c2c(c(C)c1OCC(=O)O)CCC(C)(CCCC(C)CCCC(C)CCCC(C)C)O2 (stereo not drawn),26 µM,Not Active,Not Active,4 µM,12 µM,31.6 µM,55%,–,–
CC(C)=CCC/C(C)=C/CC/C(C)=C/Cn1c2ccc(Cl)cc2c2ccc(C(C)C(=O)O)cc21 (stereo not drawn),26 µM,Not Active,Not Active,2 µM,4 µM,31.6 µM,80%,–,–
Cc1c(C)c2c(c(C)c1OCC(=O)O)CCC(C)(CCC[C@H](C)CCC[C@H](C)CCCC(C)C)O2 (stereo partly drawn),24 µM,Not Active,Not Active,6 µM,11 µM,31.6 µM,55%,–,–
Cc1c(C)c2c(c(C)c1O)CCC(C)(CCCC(C)CCCC(C)CCCC(C)C)O2 (racemic) [alpha-TOCHOPHEROL],> 100 µM,–,–,> 100 µM,> 100 µM,–,–,–,–
C/C(=C\Cn1c2ccc(Cl)cc2c2ccc(C(C)C(=O)O)cc21)CCC[C@H](C)CCC[C@H](C)CCCC(C)C (stereo partly drawn),> 50 µM,Not Active,Not Active,> 50 µM,23 µM,39.8 µM,–,–,–
COC(=O)COc1c(C)c(C)c2c(c1C)CCC(C)(CCCC(C)CCCC(C)CCCC(C)C)O2 (stereo not drawn),> 100 µM,–,–,> 100 µM,> 100 µM,–,–,–,–
CCCCCCCCCCCOC(=O)C1(C)CCc2c(C)c(OCC(=O)O)c(C)c(C)c2O1 (stereo not drawn),23 µM,Not Active,Not Active,5 µM,12 µM,31.6 µM,100%,–,–
CCCCCCCCOC(=O)C1(C)CCc2c(C)c(OCC(=O)O)c(C)c(C)c2O1 (stereo not drawn),42 µM,Not Active,Not Active,11 µM,35 µM,–,60%,–,–
C/C(=C\COc1c(C)c(C)c2c(c1C)CCC(C)(C(=O)O)O2)CCC[C@H](C)CCC[C@H](C)CCCC(C)C (stereo partly drawn),42 µM,Not Active,Not Active,10 µM,26 µM,39.8 µM,35%,–,–
CCCCCCCCCCCCCCOC(=O)C1(C)CCc2c(C)c(OCC(=O)O)c(C)c(C)c2O1 (stereo not drawn),34 µM,Not Active,Not Active,6 µM,22 µM,39.8 µM,95%,–,–
C/C(=C\COC(=O)C1(C)CCc2c(C)c(OCC(=O)O)c(C)c(C)c2O1)CCC[C@H](C)CCC[C@H](C)CCCC(C)C (stereo partly drawn),36 µM,Not Active,Not Active,13 µM,24 µM,39.8 µM,135%,–,–
CCCCCCCCCCCOc1c(C)c(C)c2c(c1C)CCC(C)(C(=O)O)O2 (stereo not drawn),> 50 µM,Not Active,Not Active,10 µM,28 µM,31.6 µM,65%,Active,Active
CC(C)=CCC/C(C)=C/CC/C(C)=C/COc1c(C)c(C)c2c(c1C)CCC(C)(C(=O)O)O2 (stereo not drawn),39 µM,Not Active,Not Active,8 µM,28 µM,31.6 µM,35%,–,–
CC(C)=CCC/C(C)=C/CC/C(C)=C/COC(=O)C1(C)CCc2c(C)c(OCC(=O)O)c(C)c(C)c2O1 (stereo not drawn),25 µM,Not Active,Not Active,1 µM,27 µM,39.8 µM,35%,–,–
